Assay results taken from patent US9108984B2, “Substituted diamino-pyrimidine and diamino-pyridine derivatives as PI3K inhibitors” (Incyte Corporation, priority 2011, dated 2015).

Assays:
[1] = system: Pfeiffer cells (diffuse large B cell lymphoma); assay: Pfeiffer cell proliferation assay; assay type: cell-based; conditions: Homo sapiens, [3H]-thymidine incorporation, 3-4 days
Experimental: Pfeiffer Cell Proliferation Assay
Pfeiffer cell line (diffuse large B cell lymphoma) was purchased from ATCC (Manassas, Va.) and maintained in the culture medium recommended (RPMI and 10% FBS). To measure the anti-proliferation activity of the compounds, the Pfeiffer cells were plated with the culture medium (2×10^3 cells/well/per 200 μl) into 96-well ultra-low binding plates (Corning, Corning, N.Y.), in the presence or absence of a concentration range of test compounds. After 3-4 days, [^3H]-thymidine (1 μCi/well) (PerkinElmer, Boston, Mass.) in PBS wass then added to the cell culture for an additional 12 hours before the incorporated radioactivity was separated by filtration with water through GF/B filters (Packard Bioscience, Meridenj, Conn.) and measured by liquid scintillation counting with a TopCount (Packard Bioscience).

[2] = target: PI3Kδ (p110δ/p85α) (Homo sapiens (Human), UniProt O00329); assay: PI3Kδ scintillation proximity assay (enzyme assay); assay type: biochemical; conditions: PI3Kδ SPA, 20 μM ATP, 20 μM PIP2, 210 min
Excerpt: PI3Kδ Scintillation Proximity Assay
[γ-^33P]ATP (10 mCi/mL) was purchased from Perkin-Elmer (Waltham, Mass.). Lipid kinase substrate, D-myo-Phosphatidylinositol 4,5-bisphosphate (PtdIns(4,5)P2)D (+)-sn-1,2-di-O-octanoylglyceryl, 3-O-phospho linked (PIP2), CAS 204858-53-7, was purchased from Echelon Biosciences (Salt Lake City, Utah). PI3Kδ (p110δ/p85α) was purchased from Millipore (Bedford, Mass.). ATP, MgCl2, DTT, EDTA, MOPS and CHAPS were purchased from Sigma-Aldrich (St. Louis, Mo.). Wheat Germ Agglutinin (WGA) YSi SPA Scintillation Beads was purchased from GE healthcare life sciences (Piscataway, N.J.).
The kinase reaction was conducted in polystyrene 384-well matrix white plate from Thermo Fisher Scientific in a final volume of 25 μL. Inhibitors were first diluted serially in DMSO and added to the plate wells before the addition of other reaction components. The final concentration of DMSO in the assay was 0.5%. The PI3K assays were carried out at room temperature in 20 mM MOPS, pH 6.7, 10 mM MgCl2, 5 mM DTT and CHAPS 0.03%. Reactions were initiated by the addition of ATP, the final reaction mixture consisted of 20 μM PIP2, 20 μM ATP, 0.2 μCi [γ-^33P] ATP, 4 nM PI3Kδ. […] After the plate sealing, plates were shaken overnight at room temperature and centrifuged at 1800 rpm for 10 minutes, the radioactivity of the product was determined by scintillation counting on Topcount (Perkin-Elmer). […]

PI3Kδ (p110δ/p85α), sequence (O00329 whole entry): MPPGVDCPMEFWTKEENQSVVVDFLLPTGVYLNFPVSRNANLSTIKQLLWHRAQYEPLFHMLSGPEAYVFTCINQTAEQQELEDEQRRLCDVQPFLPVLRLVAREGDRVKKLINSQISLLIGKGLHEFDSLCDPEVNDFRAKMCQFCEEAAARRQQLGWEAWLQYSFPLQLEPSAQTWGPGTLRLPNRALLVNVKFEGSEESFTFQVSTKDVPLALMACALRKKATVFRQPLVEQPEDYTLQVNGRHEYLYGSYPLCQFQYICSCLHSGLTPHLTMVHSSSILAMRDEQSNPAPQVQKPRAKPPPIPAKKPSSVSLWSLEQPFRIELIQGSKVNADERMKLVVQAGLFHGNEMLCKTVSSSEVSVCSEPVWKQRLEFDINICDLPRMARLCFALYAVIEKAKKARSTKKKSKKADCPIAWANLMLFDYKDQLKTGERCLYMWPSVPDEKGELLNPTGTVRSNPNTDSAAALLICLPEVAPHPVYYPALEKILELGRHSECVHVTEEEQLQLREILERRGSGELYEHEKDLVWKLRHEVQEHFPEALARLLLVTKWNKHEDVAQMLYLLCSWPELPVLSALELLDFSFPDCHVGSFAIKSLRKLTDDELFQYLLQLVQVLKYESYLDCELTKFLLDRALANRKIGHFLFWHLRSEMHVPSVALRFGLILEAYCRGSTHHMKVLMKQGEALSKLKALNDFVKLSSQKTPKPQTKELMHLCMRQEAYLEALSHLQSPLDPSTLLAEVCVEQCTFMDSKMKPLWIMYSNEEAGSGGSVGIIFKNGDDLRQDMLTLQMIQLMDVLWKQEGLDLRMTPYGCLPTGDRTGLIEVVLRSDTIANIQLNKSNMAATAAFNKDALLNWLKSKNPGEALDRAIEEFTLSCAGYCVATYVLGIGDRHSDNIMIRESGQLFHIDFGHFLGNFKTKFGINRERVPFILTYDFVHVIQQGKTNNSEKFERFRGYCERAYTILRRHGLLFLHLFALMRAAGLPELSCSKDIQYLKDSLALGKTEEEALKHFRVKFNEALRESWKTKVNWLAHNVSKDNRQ
PI3Kδ (p110δ/p85α), sequence (P27986 whole entry partner): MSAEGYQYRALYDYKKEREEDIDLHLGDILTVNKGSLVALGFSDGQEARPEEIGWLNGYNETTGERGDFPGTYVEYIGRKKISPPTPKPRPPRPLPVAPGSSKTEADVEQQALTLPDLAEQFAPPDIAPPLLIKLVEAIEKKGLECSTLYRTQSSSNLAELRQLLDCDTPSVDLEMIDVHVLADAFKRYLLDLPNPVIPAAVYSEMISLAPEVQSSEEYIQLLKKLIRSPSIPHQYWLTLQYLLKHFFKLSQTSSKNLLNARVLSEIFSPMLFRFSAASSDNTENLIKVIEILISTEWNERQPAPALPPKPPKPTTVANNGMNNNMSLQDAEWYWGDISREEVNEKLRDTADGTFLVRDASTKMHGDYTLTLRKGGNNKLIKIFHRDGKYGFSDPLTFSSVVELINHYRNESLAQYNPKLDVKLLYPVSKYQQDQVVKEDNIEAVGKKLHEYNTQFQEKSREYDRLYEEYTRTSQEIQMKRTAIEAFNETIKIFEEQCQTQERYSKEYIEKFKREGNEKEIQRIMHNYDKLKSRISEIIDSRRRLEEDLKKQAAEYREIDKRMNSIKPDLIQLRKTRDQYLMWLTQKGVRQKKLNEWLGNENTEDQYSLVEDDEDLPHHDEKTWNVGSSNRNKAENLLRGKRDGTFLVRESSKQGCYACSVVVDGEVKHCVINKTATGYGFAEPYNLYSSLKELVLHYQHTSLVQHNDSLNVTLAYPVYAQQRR

IC50 [1] [nM] | IC50 [2] [nM] | SMILES
< 20 | < 20 | CC(Nc1ncnc(N)c1C#N)c1cc(Cl)c2ccnnc2c1-c1cccc(F)c1 (single isomer, unassigned) [Example 1, 4-Amino-6-({1-[5-chloro-8-(3-fluorophenyl)cinnolin-7-yl]ethyl}amino)-pyrimidine-5-carbonitrile]
< 20 | < 20 | Cc1csc2nc([C@H](C)Nc3ncnc(N)c3C#N)c(-c3cccc(F)c3)c(=O)n12 [Example 2, 4-amino-6-({(1S)-1-[6-(3-fluorophenyl)-3-methyl-5-oxo-5H-[1,3]thiazolo[3,2-a]pyrimidin-7-yl]ethyl}amino)pyrimidine-5-carbonitrile]
